Source: US11090285B2, “Treatment of circadian rhythm disorders” (Vanda Pharmaceuticals Inc., priority 2013, dated 2021)
“Also recorded” adds a separate entry of the source.

Assays:
[1] = Tasimelteon exposure with Rifampin (CYP3A4 inducer); format: in vivo, human; conditions: single 20 mg dose after 11 days of 600 mg Rifampin
Experimental: For example, when a single 20 mg dose of tasimelteon was administered after 11 days of the administration of 600 mg of Rifampin, tasimelteon mean exposure was reduced by approximately 89%. Therefore, in cases where an individual is co-administered a CYP3A4 inducer, the dose of tasimelteon administered may be greater than if administered alone or in the absence of a CYP3A4 inducer.

[2] = Pharmacokinetics on co-administration of tasimelteon and fluvoxamine; format: in vivo, human
Experimental: Twenty-four healthy male or female subjects between the ages of 18 and 55 years of age (inclusive) who were non-smokers with a body mass index (BMI) of ≥18 and ≤35 kg/m2 participated in this open-label, single-sequence study conducted at one site. On day 1, subjects were administered […] of tasimelteon.

[3] = tmax after administration; set-up: species or system human; conditions: in vivo
Experimental: The ability to administer tasimelteon as little as about one hour prior to sleep time is advantageous because it allows for avoidance of pre-sleep time soporific effects, because it allows for administration of higher doses that might have greater soporific effects, and because it allows for pharmacologic intervention at a different phase of the sleep cycle than if it were administered earlier. Without wishing to be bound to any particular theory, it appears that the ability to administer tasimelteon so close to sleep time is a function of its tmax, which is approximately one-half hour. Melatonin, on the other hand, which has a tmax of approximately 2 hours or more, is administered several hours before sleep time, which can cause premature sleepiness; to avoid this soporific effect, melatonin is sometimes administered at sub-optimal doses.

[4] = Effect of smoking on pharmacokinetics of tasimelteon and metabolites; format: in vivo, human
Excerpt: Smokers were defined as those smoking 10 or more cigarettes per day. Non-smokers were defined as those smoking no cigarettes per day.

[5] = co-administration of fluvoxamine vs tasimelteon alone

reduction of tasimelteon mean exposure [1]: approximately 89%
CL/F ([2]; Day 1, 5.667 mg tasimelteon alone): 107 ± 555 mL/min
CL/F ([2]; Day 8, 5.667 mg tasimelteon + 50 mg fluvoxamine): 189 ± 155 mL/min
AUC (inf), Geometric Mean Ratio ([2]; Day 8 vs Day 1): 653.36%
CL/F, Geometric Mean Ratio ([2]; Day 8 vs Day 1): 15.31%
Cmax, Geometric Mean Ratio ([2]; Day 8 vs Day 1): 232.74%
t½, Geometric Mean Ratio ([2]; Day 8 vs Day 1): 211.82%
increase of AUC0-inf [2, 5]: approximately 7 fold
increase of Cmax [2, 5]: approximately 2 fold
CL/F ([4]; Non-Smokers): 1,482 ± 1,008 mL/min
CL/F ([4]; Smokers): 2,290 ± 1,232 mL/min
AUC (inf), Geometric Mean Ratio ([4]; Smokers vs Non-Smokers): 60.14%
CL/F, Geometric Mean Ratio ([4]; Smokers vs Non-Smokers): 166.27%
Cmax, Geometric Mean Ratio ([4]; Smokers vs Non-Smokers): 63.98%
Vz/F, Geometric Mean Ratio ([4]; Smokers vs Non-Smokers): 144.39%
t½, Geometric Mean Ratio ([4]; Smokers vs Non-Smokers): 86.84%
Structure (SMILES): CCC(=O)NC[C@@H]1C[C@H]1c1cccc2c1CCO2 (relative stereo) [Tasimelteon, trans-N-[[2-(2,3-dihydrobenzofuran-4-yl)cycloprop-1yl]methyl]propanamide]
Tmax [3]: approximately one-half; also recorded: about one-half
